Earlier results as cited in publication PMC11476552, “Synthesis and Preliminary Studies for In Vitro Biological Activity of Two New Water-Soluble Bis(thio)carbohydrazones and Their Copper(II) and Zinc(II) Complexes” (International Journal of Molecular Sciences, 2024).

Design: method as in PMID 29334758
Settings: cited from earlier work

SMILES: S=C(N/N=C1\CCCc2cccnc21)N1CCN(c2ccccn2)CC1 [COTI-2]
- cytotoxic activity (in words): nanomolar cytotoxic activity

SMILES: CN(C(=S)NN=C(c1ccccn1)c1ccccn1)C1CCCCC1 [DpC, di-2-pyridylketone 4-cyclohexyl-4-methyl-3-thiosemicarbazone]
- cytotoxic activity (in words): nanomolar cytotoxic activity
